Measurements: patent US10308650B2, “Pesticidally active tetracyclic derivatives with sulfur containing substituents” (Syngenta Participations AG, priority 2014, dated 2019)

Assays:
Format in all cases: in vivo
[1] = system: Diabrotica balteata (Corn Root Worm); experiment: Activity against Diabrotica balteata; conditions: 96 h, application rate of 200 ppm, maize sprouts, L2 larvae, 4 days after infestation, read-out: effect in at least one of the two categories (mortality or growth inhibition)
Method: Example B2: Activity Against Diabrotica balteata (Corn Root Worm)
Maize sprouts placed onto an agar layer in 24-well microtiter plates were treated with aqueous test solutions prepared from 10,000 ppm DMSO stock solutions by spraying. After drying, the plates were infested with L2 larvae (6 to 10 per well). The samples were assessed for mortality and growth inhibition in comparison to untreated samples 4 days after infestation.

[2] = system: Euschistus heros (Neotropical Brown Stink Bug); experiment: Activity against Euschistus heros; conditions: 120 h, application rate of 200 ppm, soybean leaves, N2 nymphs, 5 days after infestation, read-out: effect in at least one of the two categories (mortality or growth inhibition)
Method: Example B3: Activity Against Euschistus heros (Neotropical Brown Stink Bug)
Soybean leaves on agar in 24-well microtiter plates were sprayed with aqueous test solutions prepared from 10,000 ppm DMSO stock solutions. After drying the leaves were infested with N2 nymphs. The samples were assessed for mortality and growth inhibition in comparison to untreated samples 5 days after infestation.

[3] = system: Frankliniella occidentalis (Western Flower Thrips); experiment: Activity against Frankliniella occidentalis: feeding/contact activity; conditions: foliar, 168 h, application rate of 200 ppm, sunflower leaf discs, population of mixed ages, 7 days after infestation
Method: Example B4: Activity Against Frankliniella occidentalis (Western Flower Thrips): Feeding/Contact Activity
Sunflower leaf discs were placed on agar in 24-well microtiter plates and sprayed with aqueous test solutions prepared from 10,000 DMSO stock solutions. After drying the leaf discs were infested with a Frankliniella population of mixed ages. The samples were assessed for mortality 7 days after infestation.

[4] = system: Myzus persicae (Green Peach Aphid); experiment: Activity against Myzus persicae: feeding/contact activity; conditions: foliar, 144 h, application rate of 200 ppm, sunflower leaf discs, aphid population of mixed ages, 6 days after infestation, read-out: mortality
Method: Example B5: Activity Against Myzus persicae (Green Peach Aphid): Feeding/Contact Activity
Sunflower leaf discs were placed onto agar in a 24-well microtiter plate and sprayed with aqueous test solutions prepared from 10,000 ppm DMSO stock solutions. After drying, the leaf discs were infested with an aphid population of mixed ages. The samples were assessed for mortality 6 days after infestation.

[5] = system: Myzus persicae (Green Peach Aphid); experiment: Activity against Myzus persicae: systemic activity; conditions: 144 h, test rate of 24 ppm, roots of infested pea seedlings in test solution, 6 days, read-out: mortality
Method: Example B6: Activity Against Myzus persicae (Green Peach Aphid). Systemic Activity
Roots of pea seedlings infested with an aphid population of mixed ages were placed directly into aqueous test solutions prepared from 10,000 DMSO stock solutions. The samples were assessed for mortality 6 days after placing seedlings into test solutions.

[6] = system: Plutella xylostella (Diamond Back Moth); experiment: Activity against Plutella xylostella; conditions: 120 h, application rate of 200 ppm, artificial diet, L2 larvae, 5 days after infestation, read-out: effect in at least one of the two categories (mortality or growth inhibition)
Method: Example B8: Activity Against Plutella xylostella (Diamond Back Moth)
24-well microtiter plates with artificial diet were treated with aqueous test solutions prepared from 10,000 ppm DMSO stock solutions by pipetting. After drying, the plates were infested with L2 larvae (10 to 15 per well). The samples were assessed for mortality and growth inhibition in comparison to untreated samples 5 days after infestation.

[7] = system: Spodoptera littoralis (Egyptian Cotton Leaf Worm); experiment: Activity against Spodoptera littoralis (cotton leaf discs, spray); conditions: foliar, 72 h, application rate of 200 ppm, cotton leaf discs, L1 larvae, 3 days after infestation, read-out: control (mortality, anti-feeding effect, growth inhibition)
Method: Example B9: Activity Against Spodoptera littoralis (Egyptian Cotton Leaf Worm)
Cotton leaf discs were placed onto agar in 24-well microtiter plates and sprayed with aqueous test solutions prepared from 10,000 ppm DMSO stock solutions. After drying the leaf discs were infested with five L1 larvae. The samples were assessed for mortality, anti-feeding effect, and growth inhibition in comparison to untreated samples 3 days after infestation. Control of Spodoptera littoralis by a test sample is given when at least one of the categories mortality, anti-feedant effect, and growth inhibition is higher than the untreated sample.

[8] = system: Bemisia tabaci (Cotton White Fly); experiment: Activity against Bemisia tabaci: feeding/contact activity; conditions: foliar, 144 h, application rate of 200 ppm, cotton leaf discs, adult white flies, 6 days after incubation
Method: Example B1: Activity Against Bemisia tabaci (Cotton White Fly): Feeding/Contact Activity
Cotton leaf discs were placed on agar in 24-well microtiter plates and sprayed with aqueous test solutions prepared from 10,000 ppm DMSO stock solutions. After drying the leaf discs were infested with adult white flies. The samples were checked for mortality 6 days after incubation.

[9] = system: Myzus persicae (Green Peach Aphid); experiment: Activity against Myzus persicae: intrinsic activity; conditions: 120 h, test rate of 12 ppm, sucrose solution under Parafilm, 5 days after infestation, read-out: mortality
Source text: Example B7: Activity Against Myzus persicae (Green Peach Aphid). Intrinsic Activity
Test compounds prepared from 10,000 ppm DMSO stock solutions were applied by pipette into 24-well microtiter plates and mixed with sucrose solution. The plates were closed with a stretched Parafilm. A plastic stencil with 24 holes was placed onto the plate and infested pea seedlings were placed directly on the Parafilm. The infested plate was closed with a gel blotting paper and another plastic stencil and then turned upside down. The samples were assessed for mortality 5 days after infestation.

[10] = system: Spodoptera littoralis (Egyptian Cotton Leaf Worm); experiment: Activity against Spodoptera littoralis (lettuce, uptake by the roots from agar); conditions: 144 h, test rate of 12.5 ppm, lettuce grown on treated agar, Spodoptera eggs, 6 days after infestation, read-out: effect in at least one of the three categories (mortality, anti-feeding, or growth inhibition)
Source text: Example B10: Activity Against Spodoptera littoralis (Egyptian Cotton Leaf Worm)
Test compounds were applied by pipette from 10,000 ppm DMSO stock solutions into 24-well plates and mixed with agar. Lettuce seeds were placed onto the agar and the multi well plate was closed by another plate which contained also agar. After 7 days the compound was absorbed by the roots and the lettuce grew into the lid plate. The lettuce leaves were then cut off into the lid plate. Spodoptera eggs were pipetted through a plastic stencil onto a humid gel blotting paper and the lid plate was closed with it. The samples were assessed for mortality, anti-feedant effect and growth inhibition in comparison to untreated samples 6 days after infestation.

[11] = system: Tetranychus urticae (Two-Spotted Spider Mite); experiment: Activity against Tetranychus urticae: feeding/contact activity; conditions: foliar, 192 h, application rate of 200 ppm, bean leaf discs, mixed population (mobile stages), 8 days after infestation
Method: Example B11: Activity Against Tetranychus urticae (Two-Spotted Spider Mite): Feeding/Contact Activity
Bean leaf discs on agar in 24-well microtiter plates were sprayed with aqueous test solutions prepared from 10,000 ppm DMSO stock solutions. After drying the leaf discs were infested with a mite population of mixed ages. The samples were assessed for mortality on mixed population (mobile stages) 8 days after infestation.

[12] = system: Aedes aegypti (Yellow Fever Mosquito); experiment: Activity against Aedes aegypti; conditions: 200 ppm in ethanol, dry deposit in 12 well plates, adult females, after 48 h and/or 24 h
Method: Example B13: Activity Against Aedes aegypti (Yellow Fever Mosquito)
Test solutions, at an application rate of 200 ppm in ethanol, were applied to 12 well tissue culture plates. Once the deposits were dry, five, two to five day old adult female Aedes aegypti were added to each well, and sustained with a 10% sucrose solution in a cotton wool plug. Assessment of knockdown was made one hour after introduction, and mortality was assessed at 24 and 48 hours after introduction.

[13] = system: Thrips tabaci (Onion Thrips); experiment: Activity against Thrips tabaci: feeding/contact activity; conditions: foliar, 144 h, application rate of 200 ppm, sunflower leaf discs, thrips population of mixed ages, 6 days after infestation
Method: Example B12: Activity Against Thrips tabaci (Onion Thrips) Feeding/Contact Activity
Sunflower leaf discs were placed on agar in 24-well microtiter plates and sprayed with aqueous test solutions prepared from 10,000 ppm DMSO stock solutions. After drying the leaf discs were infested with a thrips population of mixed ages. The samples were assessed for mortality 6 days after infestation.

CCS(=O)(=O)c1cc2nn(C)nc2cc1-c1nc2cc(C(F)(F)F)ncc2n1C [Compound A37, 5-ethylsulfonyl-2-methyl-6-[3-methyl-6-(trifluoromethyl)imidazo[4,5-c]pyridin-2-yl]benzotriazole]
≥ 80%: percent effect (mortality or growth inhibition) at 200 ppm [1] | percent effect (mortality or growth inhibition) at 200 ppm [2] | mortality at 200 ppm [3] | mortality at 200 ppm [4] | mortality at 24 ppm [5] | percent effect (mortality or growth inhibition) at 200 ppm [6] | mortality at 200 ppm [7]

CCS(=O)(=O)c1cc2c(nc1-c1nc3cc(C(F)(F)F)ncc3n1C)nc(C(F)(F)F)n2C [Compound A33, 6-ethylsulfonyl-1-methyl-5-[3-methyl-6-(trifluoromethyl)imidazo[4,5-c]pyridin-2-yl]-2-(trifluoromethyl)imidazo[4,5-b]pyridine]
≥ 80%: mortality at 200 ppm [8] | percent effect (mortality or growth inhibition) at 200 ppm [1] | percent effect (mortality or growth inhibition) at 200 ppm [2] | mortality at 200 ppm [3] | mortality at 200 ppm [4] | mortality at 24 ppm [5] | percent effect (mortality or growth inhibition) at 200 ppm [6] | mortality at 200 ppm [7]

CCS(=O)(=O)c1cc2ccccc2cc1-c1nc2cc(C(F)(F)F)ncc2n1C [Compound A24, 2-(3-ethylsulfonyl-2-naphthyl)-3-methyl-6-(trifluoromethyl)imidazo[4,5-c]pyridine]
≥ 80%: percent effect (mortality or growth inhibition) at 200 ppm [1] | percent effect (mortality or growth inhibition) at 200 ppm [2] | mortality at 200 ppm [4] | mortality at 12 ppm [9] | percent effect (mortality or growth inhibition) at 200 ppm [6] | mortality at 200 ppm [7] | percent effect (mortality, anti-feeding or growth inhibition) at 12.5 ppm [10] | mortality at 200 ppm [11] | pest or weed control at 200 ppm [12]

CCS(=O)(=O)c1cc2c(C3CC3)cccc2nc1-c1nc2cc(C(F)(F)F)ncc2n1C [Compound A43, 5-cyclopropyl-3-ethylsulfonyl-2-[3-methyl-6-(trifluoromethyl)imidazo[4,5-c]pyridin-2-yl]quinoline]
≥ 80%: percent effect (mortality or growth inhibition) at 200 ppm [1] | percent effect (mortality or growth inhibition) at 200 ppm [2] | mortality at 200 ppm [4] | percent effect (mortality or growth inhibition) at 200 ppm [6] | mortality at 200 ppm [7] | percent effect (mortality, anti-feeding or growth inhibition) at 12.5 ppm [10] | mortality at 200 ppm [11]

CCS(=O)(=O)c1cc2nc(C(F)(F)F)sc2cc1-c1nc2cc(C(F)(F)F)ncc2n1C [Compound A31, 5-ethylsulfonyl-6-[3-methyl-6-(trifluoromethyl)imidazo[4,5-c]pyridin-2-yl]-2-(trifluoromethyl)-1,3-benzothiazole]
≥ 80%: mortality at 200 ppm [8] | percent effect (mortality or growth inhibition) at 200 ppm [1] | percent effect (mortality or growth inhibition) at 200 ppm [2] | mortality at 200 ppm [3] | mortality at 200 ppm [4] | percent effect (mortality or growth inhibition) at 200 ppm [6] | mortality at 200 ppm [7] | percent effect (mortality, anti-feeding or growth inhibition) at 12.5 ppm [10] | pest or weed control at 200 ppm [12]

CCS(=O)(=O)c1cc2nc(C(F)(F)F)[nH]c2cc1-c1nc2cc(C(F)(F)F)ncc2n1C [Compound A7, 2-[6-ethylsulfonyl-2-(trifluoromethyl)-3H-benzimidazol-5-yl]-3-methyl-6-(trifluoromethyl)imidazo[4,5-c]pyridine]
≥ 80%: mortality at 200 ppm [7] | mortality at 200 ppm [11]

CCS(=O)(=O)c1cc2c(nc1-c1nc3cc(C(F)(F)F)ncc3n1C)CC(C)(C)O2 [Compound A59, 6-ethylsulfonyl-2,2-dimethyl-5-[3-methyl-6-(trifluoromethyl)imidazo[4,5-c]pyridin-2-yl]-3H-furo[3,2-b]pyridine]
≥ 80%: mortality at 200 ppm [8] | percent effect (mortality or growth inhibition) at 200 ppm [1] | percent effect (mortality or growth inhibition) at 200 ppm [2] | mortality at 200 ppm [4] | mortality at 24 ppm [5] | percent effect (mortality or growth inhibition) at 200 ppm [6] | mortality at 200 ppm [7] | percent effect (mortality, anti-feeding or growth inhibition) at 12.5 ppm [10] | mortality at 200 ppm [13]
